Data set [1] in a line: Dissolution / solubility in PBS 6.8 analysed by HPLC. The note with it: PBS 6.8 at 37°C, triplicate. Format: physicochemical. The procedure: 25 mg equivalent of APX was sieved to 75-100µm using standard-mesh sieve and the resulting slurry was added to 500 mL phosphate buffer solution (PBS) 6.8 at 37°C stirring at 100 rpm. 1mL aliquots were taken at 1 3, 5, 10, 15, 30, 60, 120, 240, 480, 720 and 1440 minutes. Each aliquot filtered through a 0.45 µm Whattmann syringe filter. 500 µL of filtered aliquot and 500 µL of methanol were pipetted into a vial and injected to HPLC. All dissolution experiments for APX and cocrystals were carried in triplicates.
The dissolution aliquots were analysed using a Shimadzu (LC-20A) HPLC instrument with a Gemini® C18 (250 x 4.6 x 5 µm) column. The wavelength was set to 235nm with an injection volume of 10 µL and a flow rate of 1 mL/min with the oven set at 40°C.
Physicochemical properties such as PBS 6.8 solubility were analysed by high performance liquid chromatography (HPLC). […] Table 4: Solubility of APX and respective cocrystals in PBS 6.8 at 37°C

For data set [2] the following is noted: single 10 mg dose; cited from earlier work.

`COc1ccc(-n2nc(C(N)=O)c3c2C(=O)N(c2ccc(N4CCCCC4=O)cc2)CC3)cc1` [APX, 1-(4-methoxyphenyl)-7-oxo-6-(4-(2-oxopiperidin-1-yl)phenyl)-4,5,6,7-tetrahydro-1H-pyrazolo[3,4-c]pyridine-3-carboxamide]: the “Acute, T= 60 mins Conc” value in data set [1] (60 mins) was determined as 0.0241 mg/mL. For the same compound, the “Chronic, T= 720mins Conc” value in data set [1] (720 mins) is recorded as 0.0303 mg/mL. The oral bioavailability entry in data set [2] is “about 50%”.

These data come from EP4105215A1, “CO-CRYSTAL OF APIXABAN WITH A CARBOXYLIC ACID” (University of Limerick, priority 2021, dated 2022).
